What all share (assay type): biochemical
One experiment has as its target T1, Pak4 (Homo sapiens, UniProt O96013).
T1 construct: The kinase domain of Pak4 (amino acids 291 to 591) is expressed in E. coli as a GST fusion; GST; made in house; host or cells: E. coli
The experiment can be described thus: In Vitro Pak4 Enzyme Assay (SPA). The conditions noted are these: read-out: IC50 value in the Pak 4 enzyme assay. How it is done:
The assay used Scintillation Proximity Assay (SPA) technology (Antonsson et al., Analytical Biochemistry, 1999, 267: 294-299) to determine the ability of test compounds to inhibit phosphorylation by recombinant Pak4. The kinase domain of Pak4 (amino acids 291 to 591) is expressed in E. coli as a GST fusion and purified using the GST tag using standard purification techniques.
(§1) Test compounds were prepared as 10 mM stock solutions in DMSO and diluted into water as required to give a range of final assay concentrations. Aliquots (5 μl) of each compound dilution were placed into a well of a Matrix 384-well flat bottom white polystyrene plate (Catalogue No. 4316). […]
Each reaction was stopped and the biotinylated peptide captured by the addition of 30 μl of a mixture of Streptavidin coated PVT SPA bead slurry (Amersham Biosciences, Catalogue No. RPQ0205; 250 μg/well) in 50 mM Tris-HCl pH7.5 buffer containing 0.05% sodium azide followed by the addition of 30 μl of 2.83M Caesium chloride (final assay concentration of 1M). Plates are then left for 2 hours on the bench before being counted on a TopCount. […]
Pak4 enzyme inhibition for a given test compound was expressed as an IC50 value. […]

A further experiment addresses T2, PDK1 (Homo sapiens, UniProt O15530).
T2 construct: 6His; made in house; host or cells: insect cells
T2 sequence (O15530 1-556): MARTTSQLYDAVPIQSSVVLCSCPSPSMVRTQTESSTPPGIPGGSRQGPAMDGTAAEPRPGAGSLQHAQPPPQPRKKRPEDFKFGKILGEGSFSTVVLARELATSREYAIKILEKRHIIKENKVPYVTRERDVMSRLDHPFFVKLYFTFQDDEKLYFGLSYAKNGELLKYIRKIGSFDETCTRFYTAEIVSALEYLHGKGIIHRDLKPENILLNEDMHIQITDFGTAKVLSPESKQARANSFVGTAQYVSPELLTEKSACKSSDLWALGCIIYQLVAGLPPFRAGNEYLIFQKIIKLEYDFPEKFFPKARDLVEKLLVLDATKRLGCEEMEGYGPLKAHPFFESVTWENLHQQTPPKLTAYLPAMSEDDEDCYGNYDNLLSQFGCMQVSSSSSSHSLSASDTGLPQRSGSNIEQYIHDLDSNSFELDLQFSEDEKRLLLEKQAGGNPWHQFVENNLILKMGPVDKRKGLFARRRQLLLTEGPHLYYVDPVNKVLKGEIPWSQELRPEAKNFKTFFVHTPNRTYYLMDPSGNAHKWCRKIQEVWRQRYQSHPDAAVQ
The experiment can be described thus: PDK1 Enzyme Assay (Alphascreen). How it is done:
The assay utilised Alphascreen technology (Ullman, E F, et al. Proc. Natl. Acad. Sci. USA, Vol. 91, pp. 5426-5430, 1994) to measure the ability of compounds to inhibit PDK1 enzyme activity. 6H is tagged PDK1 enzyme was expressed in insect cells and purified using NiNTA beads and conventional protein purification methodology.
Test compounds were prepared as 10 mM stock solutions in DMSO and diluted into water as required to give a range of final assay concentrations. 2 μl aliquots of compounds were dispensed into Greiner Bio-One low volume 384 well plates (Catalogue no. 784075). For the activity assay, to each well was added 5 μl of a mixture of 48 nM native peptide (Biotin-Ahx-[…]NH2, Bachem UK Ltd) and 12 μM adenosine triphosphate (ATP) in reaction buffer comprising Tris-HCl pH7.4 (60 mM), magnesium acetate (12 mM), EGTA (120 μM), DTT (1.2 mM) and bovine serum albumin (0.12 mg/ml). […]
Each reaction was stopped by addition of 5 μl of a solution containing Tris-HCl pH7.4 (50 mM), bovine serum albumin (1 mg/ml), EDTA (90 mM), anti-phospho Akt T308 antibody, R&D Systems, Catalogue no. […] Plates were then sealed and incubated overnight in low light conditions before being read on an Envision plate reader (Perkin Elmer). […]
A general note: Bead proximity is the source of the signal in Alpha formats.

For a further experiment, the target named is T3, Pak1 (Homo sapiens, UniProt Q13153).
T3 construct: The full-length Pak1 protein is expressed in E. coli as a GST fusion; GST; made in house; host or cells: E. coli
T3 sequence (Q13153 whole entry, the tested form may be a part): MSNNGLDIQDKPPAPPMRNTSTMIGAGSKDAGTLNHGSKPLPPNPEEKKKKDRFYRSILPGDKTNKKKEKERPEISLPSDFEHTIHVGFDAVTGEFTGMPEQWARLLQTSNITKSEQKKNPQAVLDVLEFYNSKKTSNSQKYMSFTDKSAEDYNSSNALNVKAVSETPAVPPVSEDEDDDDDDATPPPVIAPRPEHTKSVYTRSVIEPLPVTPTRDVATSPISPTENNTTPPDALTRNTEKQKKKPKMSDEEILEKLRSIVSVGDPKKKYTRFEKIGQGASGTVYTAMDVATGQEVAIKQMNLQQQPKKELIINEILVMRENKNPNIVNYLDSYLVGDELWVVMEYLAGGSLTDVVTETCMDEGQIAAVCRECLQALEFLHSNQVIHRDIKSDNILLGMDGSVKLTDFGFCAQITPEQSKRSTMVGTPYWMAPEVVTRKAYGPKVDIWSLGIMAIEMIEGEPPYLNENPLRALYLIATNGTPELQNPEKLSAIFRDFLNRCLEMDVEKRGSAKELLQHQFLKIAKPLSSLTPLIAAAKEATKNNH
The experiment can be described thus: In Vitro Pak1 Enzyme Assay (SPA). The conditions noted are these: read-out: IC50 value in the Pak 1 enzyme assay. How it is done: The assay used Scintillation Proximity Assay (SPA) technology (Antonsson et al., Analytical Biochemistry, 1999, 267: 294-299) to determine the ability of test compounds to inhibit phosphorylation by recombinant Pak1. The full-length Pak1 protein is expressed in E. coli as a GST fusion and purified using the GST tag using standard purification techniques.
as §1
Each reaction was stopped and the biotinylated peptide captured by the addition of 30 […] of a mixture of Streptavidin coated PVT SPA bead slurry (Amersham Biosciences, Catalogue No. RPQO205; 250 μg/well) in 50 mM Tris-HCl pH7.5 buffer containing 0.05% sodium azide followed by the addition of 30 μl of 2.83M Caesium chloride (final assay concentration of 1M). Plates are then left for 2 hours on the bench before being counted on a TopCount. […]
Pak1 enzyme inhibition for a given test compound was expressed as an IC50 value.

The next experiment has as its target T4, CHK1 kinase (Homo sapiens, UniProt O14757).
T4 construct: The kinase domain is expressed in baculovirus and purified by the GST tag; GST; made in house; host or cells: baculovirus system (insect cells implied)
T4 sequence (O14757 9-265 limits assumed): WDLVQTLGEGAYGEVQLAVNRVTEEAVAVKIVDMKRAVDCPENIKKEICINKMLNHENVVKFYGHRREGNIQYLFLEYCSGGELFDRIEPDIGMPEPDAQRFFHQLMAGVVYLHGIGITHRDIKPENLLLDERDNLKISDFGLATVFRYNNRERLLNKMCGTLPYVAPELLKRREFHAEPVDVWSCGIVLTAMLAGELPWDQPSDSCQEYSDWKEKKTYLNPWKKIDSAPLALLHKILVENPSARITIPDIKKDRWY
Nature of the experiment: Checkpoint Kinase 1 Assay (SPA). As for the experimental part:
Checkpoint Kinase 1 Assay: This in vitro assay measures the inhibition of CHK1 kinase by compounds. The kinase domain is expressed in baculovirus and purified by the GST tag. Purified protein and biotinylated peptide substrate (Cdc25C) is then used in a 384 well automated Scintillation Proximity Assay (SPA). Specifically, peptide, enzyme and reaction buffer are mixed and aliquoted into a 384 well plate containing dilution series of compounds and controls. Cold and hot ATP are then added to initiate the reaction. After 2 hours, a SPA bead slurry, […] and EDTA are added to stop the reaction and capture the biotinylated peptide. Plates are then counted on a Topcount. Data is analyzed and IC50s determined for individual compounds.

pIC50: −log10 of the molar value. Read-outs that look alike come from different tables or passages of the source.

T1 sequence (O96013 291-591): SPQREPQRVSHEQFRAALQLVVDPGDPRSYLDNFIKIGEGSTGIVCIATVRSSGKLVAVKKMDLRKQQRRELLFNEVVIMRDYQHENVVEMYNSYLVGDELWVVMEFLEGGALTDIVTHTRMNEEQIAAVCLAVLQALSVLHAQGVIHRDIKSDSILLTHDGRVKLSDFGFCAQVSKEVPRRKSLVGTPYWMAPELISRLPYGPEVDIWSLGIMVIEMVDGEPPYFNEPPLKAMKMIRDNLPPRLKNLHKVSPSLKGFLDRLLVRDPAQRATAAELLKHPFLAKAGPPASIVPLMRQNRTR

As a reminder, the pIC50 is the negative decadic logarithm of the IC50, by convention in mol/L. Regarding `NC(=O)c1cnc(N[C@H]2CCCNC2)c2cc(-c3ccc(Cl)cc3)sc12` [Example 14, 2-(4-chlorophenyl)-4-[(3S)-piperidin-3-ylamino]thieno[3,2-c]pyridine-7-carboxamide], the pIC50 at Pak4 was 7.00; against PDK1 it was 6.80; at Pak1, 6.22.

In turn, `Cc1cc2c(N[C@H]3CCCNC3)ncc(C(N)=O)c2s1` [Example 157, 2-methyl-4-[(3S)-piperidin-3-ylamino]thieno[3,2-c]pyridine-7-carboxamide] gave a pIC50 at CHK1 kinase of 6.82.

Take `NC(=O)c1cnc(N[C@H]2CCCNC2)c2cc(-c3cc(F)cc(F)c3)sc12` [Example 10, 2-(3,5-difluorophenyl)-4-[(3S)-piperidin-3-ylamino]thieno[3,2-c]pyridine-7-carboxamide]: the values for the pIC50 at Pak4, at PDK1 and at Pak1 were 6.85, 6.46 and 6.14, respectively.

In the case of `NCCNc1ncc(C(N)=O)c2sc(-c3ccccc3)cc12` [Example 16, 4-[(2-aminoethyl)amino]-2-phenylthieno[3,2-c]pyridine-7-carboxamide], on CHK1 kinase (read-out: IC50 value in the Checkpoint Kinase 1 assay), the pIC50 was 6.26.

For the origin of these results see patent publication US20090275570A1, “SUBSTITUTED HETEROCYCLES AND THEIR USE AS CHK1, PDK1 AND PAK INHIBITORS” (ASTRAZENECA AB, priority 2005, published 2009).
